Measured values reported in patent US20090018134A1, “Compounds - 945” (AstraZeneca AB, priority 2007, published 2009).

Biological target: T1, mTOR (Homo sapiens, UniProt P42345)
T1 construct: FLAG; made in house
Assay: In Vitro mTOR Kinase Assay (Echo), Test (a)(ii)
Type: biochemical
Conditions: table of enzyme assay Test (a)(ii); read-out: Test (a)(ii) IC50
Summary of the method: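 Compounds were acoustically dispensed, then incubated with FLAG-tagged mTOR (1362-2549) for 2 hours at room temperature. Reactions were quenched with EDTA plus detection antibody and AlphaScreen beads and left overnight in the dark before reading. Loss of phospho-T389 signal gave IC50 values.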

T1 sequence (P42345 1362-2549): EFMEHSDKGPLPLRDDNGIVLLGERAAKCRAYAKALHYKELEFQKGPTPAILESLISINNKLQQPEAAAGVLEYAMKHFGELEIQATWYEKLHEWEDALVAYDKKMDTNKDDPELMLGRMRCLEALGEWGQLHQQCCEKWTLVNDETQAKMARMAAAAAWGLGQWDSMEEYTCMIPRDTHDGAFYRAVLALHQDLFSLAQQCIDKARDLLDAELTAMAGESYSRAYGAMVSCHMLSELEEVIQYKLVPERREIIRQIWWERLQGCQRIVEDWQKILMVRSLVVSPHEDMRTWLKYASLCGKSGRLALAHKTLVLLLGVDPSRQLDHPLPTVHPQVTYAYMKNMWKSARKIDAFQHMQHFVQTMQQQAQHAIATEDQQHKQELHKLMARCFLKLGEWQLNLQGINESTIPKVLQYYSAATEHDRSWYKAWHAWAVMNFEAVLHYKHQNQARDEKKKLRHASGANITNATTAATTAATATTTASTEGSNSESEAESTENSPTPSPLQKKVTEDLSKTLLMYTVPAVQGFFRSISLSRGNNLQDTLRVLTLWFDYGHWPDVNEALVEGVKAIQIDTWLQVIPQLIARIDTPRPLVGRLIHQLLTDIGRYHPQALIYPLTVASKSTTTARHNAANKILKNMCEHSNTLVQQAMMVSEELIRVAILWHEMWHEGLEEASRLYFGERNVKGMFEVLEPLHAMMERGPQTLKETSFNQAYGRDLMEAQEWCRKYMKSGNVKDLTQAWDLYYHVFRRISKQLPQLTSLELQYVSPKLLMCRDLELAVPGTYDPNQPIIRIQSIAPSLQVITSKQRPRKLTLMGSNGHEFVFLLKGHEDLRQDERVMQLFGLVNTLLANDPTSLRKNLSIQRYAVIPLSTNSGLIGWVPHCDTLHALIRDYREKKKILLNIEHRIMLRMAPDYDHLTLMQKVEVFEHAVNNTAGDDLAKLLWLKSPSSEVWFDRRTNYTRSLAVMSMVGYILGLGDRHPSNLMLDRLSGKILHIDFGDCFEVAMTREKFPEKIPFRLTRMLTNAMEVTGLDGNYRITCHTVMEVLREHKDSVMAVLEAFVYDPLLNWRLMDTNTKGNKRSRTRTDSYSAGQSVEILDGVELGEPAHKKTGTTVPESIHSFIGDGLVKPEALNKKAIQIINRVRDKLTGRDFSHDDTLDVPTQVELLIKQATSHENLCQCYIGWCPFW

| IC50 | Compound |
| --- | --- |
| 12 nM | CNC(=O)Nc1ccc(-c2nc(N3CCOC[C@@H]3C)cc(C3(S(=O)(=O)c4cc(F)ccc4F)CC3)n2)cc1 [Example 60, 1-[4-[4-[1-(2,5-Difluorophenyl)sulfonylcyclopropyl]-6-[(3S)-3-methylmorpholin-4-yl]pyrimidin-2-yl]phenyl]-3-methylurea] |
| 8.62 nM | C[C@H]1COCCN1c1cc(C2(S(=O)(=O)c3cc(F)ccc3F)CC2)nc(-c2ccc(NC(=O)NCCO)cc2)n1 [Example 60b, 1-[4-[4-[1-(2,5-difluorophenyl)sulfonylcyclopropyl]-6-[(3S)-3-methylmorpholin-4-yl]pyrimidin-2-yl]phenyl]-3-(2-hydroxyethyl)urea] |
| 6.95 nM | C[C@H]1COCCN1c1cc(C2(S(=O)(=O)c3cc(F)ccc3F)CC2)nc(-c2ccc(NC(=O)NCCF)cc2)n1 [Example 60c, 1-[4-[4-[1-(2,5-difluorophenyl)sulfonylcyclopropyl]-6-[(3S)-3-methylmorpholin-4-yl]pyrimidin-2-yl]phenyl]-3-(2-fluoroethyl)urea] |
| 11.6 nM | CCNC(=O)Nc1ccc(-c2nc(N3CCOC[C@@H]3C)cc(C3(S(=O)(=O)c4cc(F)ccc4F)CC3)n2)cc1 [Example 60e, 3-[4-[4-[1-(2,5-difluorophenyl)sulfonylcyclopropyl]-6-[(3S)-3-methylmorpholin-4-yl]pyrimidin-2-yl]phenyl]-1-ethylurea] |
| 26.9 nM | CNC(=O)Nc1ccc(-c2nc(N3CCOC[C@@H]3C)cc(C3(S(=O)(=O)c4cc(F)ccc4C)CC3)n2)cc1 [Example 61, 1-[4-[4-[1-(5-Fluoro-2-methylphenyl)sulfonylcyclopropyl]-6-[(3S)-3-methylmorpholin-4-yl]pyrimidin-2-yl]phenyl]-3-methylurea] |
| 32.6 nM | Cc1ccc(F)cc1S(=O)(=O)C1(c2cc(N3CCOC[C@@H]3C)nc(-c3ccc(NC(=O)NC4CC4)cc3)n2)CC1 [Example 61a, 3-cyclopropyl-1-[4-[4-[1-(5-fluoro-2-methylphenyl)sulfonylcyclopropyl]-6-[(3S)-3-methylmorphohn-4-yl]pyrimidin-2-yl]phenyl]urea] |
| 13.6 nM | Cc1ccc(F)cc1S(=O)(=O)C1(c2cc(N3CCOC[C@@H]3C)nc(-c3ccc(NC(=O)NCCO)cc3)n2)CC1 [Example 61b, 1-[4-[4-[1-(5-fluoro-2-methylphenyl)sulfonylcyclopropyl]-6-[(3S)-3-methylmorpholin-4-yl]pyrimidin-2-yl]phenyl]-3-(2-hydroxyethyl)urea] |
| 21.1 nM | Cc1ccc(F)cc1S(=O)(=O)C1(c2cc(N3CCOC[C@@H]3C)nc(-c3ccc(NC(=O)NCCF)cc3)n2)CC1 [Example 61c, 3-(2-fluoroethyl)-1-[4-[4-[1-(5-fluoro-2-methylphenyl)sulfonylcyclopropyl]-6-[(3S)-3-methylmorpholin-4-yl]pyrimidin-2-yl]phenyl]urea] |
| 43.8 nM | Cc1ccc(F)cc1S(=O)(=O)C1(c2cc(N3CCOC[C@@H]3C)nc(-c3ccc(NC(=O)NCC(F)F)cc3)n2)CC1 [Example 61d, 3-(2,2-difluoroethyl)-1-[4-[4-[1-(5-fluoro-2-methylphenyl)sulfonylcyclopropyl]-6-[(3S)-3-methylmorphohn-4-yl]pyrimidin-2-yl]phenyl]urea] |
| 23.7 nM | CCNC(=O)Nc1ccc(-c2nc(N3CCOC[C@@H]3C)cc(C3(S(=O)(=O)c4cc(F)ccc4C)CC3)n2)cc1 [Example 61e, 1-ethyl-3-[4-[4-[1-(5-fluoro-2-methylphenyl)sulfonylcyclopropyl]-6-[(3S)-3-methylmorpholin-4-yl]pyrimidin-2-yl]phenyl]urea] |
| 32.8 nM | Cc1ccc(F)cc1S(=O)(=O)C1(c2cc(N3CCOC[C@@H]3C)nc(-c3ccc(NC(=O)Nc4cnn(C)c4)cc3)n2)CC1 [Example 61f, 1-[4-[4-[1-(5-fluoro-2-methylphenyl)sulfonylcyclopropyl]-6-[(3S)-3-methylmorpholin-4-yl]pyrimidin-2-yl]phenyl]-3-(1-methylpyrazol-4-yl)urea] |

The remaining lines, values behind:

| Compound | IC50 |
| --- | --- |
| Cc1noc(C)c1S(=O)(=O)C1(c2cc(N3CCOC[C@@H]3C)nc(-c3ccc(NC(=O)NCCF)cc3)n2)CC1 [Example 59c, 1-[4-[4-[1-[(3,5-dimethyl-1,2-oxazol-4-yl)sulfonyl]cyclopropyl]-6-[(3S)-3-methylmorpholin-4-yl]pyrimidin-2-yl]phenyl]-3-(2-fluoroethyl)urea] | 22.6 nM |
| Cc1noc(C)c1S(=O)(=O)C1(c2cc(N3CCOC[C@@H]3C)nc(-c3ccc(NC(=O)NCC(F)F)cc3)n2)CC1 [Example 59d, 3-(2,2-difluoroethyl)-1-[4-[4-[1-[(3,5-dimethyl-1,2-oxazol-4-yl)sulfonyl]cyclopropyl]-6-[(3S)-3-methylmorpholin-4-yl]pyrimidin-2-yl]phenyl]urea] | 32 nM |
| Cc1noc(C)c1S(=O)(=O)C1(c2cc(N3CCOC[C@@H]3C)nc(-c3ccc(NC(=O)NCC4(O)CC4)cc3)n2)CC1 [Example 59e, 1-[4-[4-[1-[(3,5-dimethyl-1,2-oxazol-4-yl)sulfonyl]cyclopropyl]-6-[(3S)-3-methylmorpholin-4-yl]pyrimidin-2-yl]phenyl]-3-[(1-hydroxycyclopropyl)methyl]urea] | 293 nM |
| CCNC(=O)Nc1ccc(-c2nc(N3CCOC[C@@H]3C)cc(C3(S(=O)(=O)c4c(C)noc4C)CC3)n2)cc1 [Example 59f, 3-[4-[4-[1-[(3,5-dimethyl-1,2-oxazol-4-yl)sulfonyl]cyclopropyl]-6-[(3S)-3-methylmorpholin-4-yl]pyrimidin-2-yl]phenyl]-1-ethylurea] | 49.1 nM |
| Cc1noc(C)c1S(=O)(=O)C1(c2cc(N3CCOC[C@@H]3C)nc(-c3ccc(NC(=O)Nc4cnn(C)c4)cc3)n2)CC1 [Example 59g, 1-[4-[4-[1-[(3,5-dimethyl-1,2-oxazol-4-yl)sulfonyl]cyclopropyl]-6-[(3S)-3-methylmorpholin-4-yl]pyrimidin-2-yl]phenyl]-3-(1-methylpyrazol-4-yl)urea] | 101 nM |
| C[C@H]1COCCN1c1cc(C2(S(=O)(=O)c3cc(F)ccc3F)CC2)nc(-c2ccc(NC(=O)NC3CC3)cc2)n1 [Example 60a, 3-cyclopropyl-1-[4-[4-[1-(2,5-difluorophenyl)sulfonylcyclopropyl]-6-[(3S)-3-methylmorpholin-4-yl]pyrimidin-2-yl]phenyl]urea] | 19.1 nM |
| C[C@H]1COCCN1c1cc(C2(S(=O)(=O)c3cc(F)ccc3F)CC2)nc(-c2ccc(NC(=O)NCC(F)F)cc2)n1 [Example 60d, 3-(2,2-difluoroethyl)-1-[4-[4-[1-(2,5-difluorophenyl)sulfonylcyclopropyl]-6-[(3S)-3-methylmorpholin-4-yl]pyrimidin-2-yl]phenyl]urea] | 18.3 nM |
| C[C@H]1COCCN1c1cc(C2(S(=O)(=O)c3cc(F)ccc3F)CC2)nc(-c2ccc(NC(=O)Nc3cnn(C)c3)cc2)n1 [Example 60f, 1-[4-[4-[1-(2,5-difluorophenyl)sulfonylcyclopropyl]-6-[(3S)-3-methylmorpholin-4-yl]pyrimidin-2-yl]phenyl]-3-(1-methylpyrazol-4-yl)urea] | 17.3 nM |
| C[C@H]1COCCN1c1cc(C2(S(C)(=O)=O)CCC2)nc(-c2ccc(NC(=S)NCCO)cc2)n1 [Example 62, 3-(2-Hydroxyethyl)-1-[4-[4-[(3S)-3-methylmorpholin-4-yl]-6-(1-methylsulfonylcyclobutyl)pyrimidin-2-yl]phenyl]thiourea] | 2.05 nM |
| C[C@H]1COCCN1c1cc(C2(S(C)(=O)=O)CCC2)nc(-c2ccc(NC(=S)NCc3ncc[nH]3)cc2)n1 [Example 62a, 3-(1H-imidazol-2-ylmethyl)-1-[4-[4-[(3S)-3-methylmorpholin-4-yl]-6-(1-methylsulfonylcyclobutyl)pyrimi-din-2-yl]phenyl]thiourea] | 39.3 nM |
| C[C@@H](CO)NC(=S)Nc1ccc(-c2nc(N3CCOC[C@@H]3C)cc(C3(S(C)(=O)=O)CCC3)n2)cc1 [Example 62b, 3-[(2S)-1-hydroxypropan-2-yl]-1-[4-[4-[(3S)-3-methylmorpholin-4-yl]-6-(1-methylsulfonylcyclobutyl)pyrimi-din-2-yl]phenyl]thiourea] | 5.46 nM |
| C[C@H](CO)NC(=S)Nc1ccc(-c2nc(N3CCOC[C@@H]3C)cc(C3(S(C)(=O)=O)CCC3)n2)cc1 [Example 62c, 3-[(2R)-1-hydroxypropan-2-yl]-1-[4-[4-[(3S)-3-methylmorpholin-4-yl]-6-(1-methylsulfonylcyclobutyl)pyrimi-din-2-yl]phenyl]thiourea] | 37.5 nM |
| C[C@H]1COCCN1c1cc(C2(S(C)(=O)=O)CCC2)nc(-c2ccc(NC(=S)NCCCO)cc2)n1 [Example 62d, 3-(3-hydroxypropyl)-1-[4-[4-[(3S)-3-methylmorpholin-4-yl]-6-(1-methylsulfonylcyclobutyl)pyrimi-din-2-yl]phenyl]thiourea] | 22 nM |
| C[C@H]1COCCN1c1cc(C2(S(=O)(=O)c3ccncc3)CCC2)nc(-c2ccc(NC(=S)NCc3ncc[nH]3)cc2)n1 [Example 63, 3-(1H-Imidazol-2-ylmethyl)-1-[4-[4-[(3S)-3-methylmorpholin-4-yl]-6-(1-pyridin-4-ylsulfonylcyclobutyl)pyrimidin-2-yl]phenyl]thiourea] | 72.5 nM |
| C[C@H]1COCCN1c1cc(C2(S(=O)(=O)c3ccc(OC(F)F)cc3)CC2)nc(-c2ccc(NC(=O)NC3CC3)cc2)n1 [Example 64, 3-Cyclopropyl-1-[4-[4-[1-[4-(difluoromethoxy)phenyl]sulfonylcyclopropyl]-6-[(3 S)-3-methylmorpholin-4-yl]pyrimidin-2-yl]phenyl]urea] | 7.85 nM |
| CNC(=O)Nc1ccc(-c2nc(N3CCOC[C@@H]3C)cc(C3(S(=O)(=O)c4ccc(OC(F)F)cc4)CC3)n2)cc1 [Example 64a, 1-[4-[4-[1-[4-(difluoromethoxy)phenyl]sulfonyl-cyclopropyl]-6-[(3S)-3-methylmorpholin-4-yl]pyrimidin-2-yl]phenyl]-3-methylurea] | 5.2 nM |
| C[C@H]1COCCN1c1cc(C2(S(C)(=O)=O)CC2)nc(-c2ccc(NC(=O)NCCF)cc2)n1 [Example 64aa, 3-(2-fluoroethyl)-1-[4-[4-[(3S)-3-methylmorpholin-4-yl]-6-(1-methylsulfonylcyclopropyl)pyrimi-din-2-yl]phenyl]urea] | 3.88 nM |
